Results reported in patent publication US20110195116A1, “RATE MODULATED DELIVERY OF DRUGS FROM A COMPOSITE DELIVERY SYSTEM” (ADCOCK INGRAM HEALTHCARE PTY LIMITED, priority 2008, published 2011).
Counter-ions that a name gives are not always drawn. Like-named read-outs stand apart in the source and are kept apart here.

Tests used:
[1] = cited from earlier work
[2] = dissolution study, USP paddle, phosphate buffer pH 6.8; assay type: physicochemical
Experimental: Initial dissolution characteristics of the combined APIs paracetamol, tramadol hydrochloride and diclofenac potassium; individual and combined cellulose and ethylene oxide-based polymers were determined by producing experimental batches of tablets. These were produced on a Manesty Single Punch Type F3 machine by direct compression and wet granulation techniques into monolithic matrix and multi-layered systems, as shown in FIG. 1. In situ crosslinking of various alginate, pectin and eudragit polymers with salts such as zinc gluconate was also investigated for an influence on the release characteristics of the solid dosage system.
(§1) Dissolution studies were conducted using a USP rotating paddle method (Hanson Virtual Instruments SR8 Plus Dissolution Test Stations) at 50 rpm in phosphate buffer pH 6.8 (900 mL, 37° C.±0.5° C.) for each formulation employing an autosampler (Hanson Research Auto Plus Maximiser and AutoPlus™ MultiFill™). Samples of 1.6 mL were withdrawn over a period of 12 to 20 hours and analysed via HPLC. Release profiles in simulated gastric fluid pH 1.2 without pepsin over a period of four hours were determined to identify any site-specific release induced by the polymers. The dissolution studies were performed under the conditions described in Table 1.

[3] = in vivo; cited from earlier work
[4] = dissolution study, USP paddle, simulated gastric fluid pH 1.2 without pepsin; assay type: physicochemical; details: cellulose, polyethylene oxide and alginate polymer formulations
Experimental: as §1
The alginate and zinc gluconate addition was then included in a formulation where the HEC and HPC had been further reduced to 45.31 mg and 90.6 mg respectively (FIG. 16).
In order to establish the potential site-specific release potential of the polymeric dosage form, formulations consisting of cellulose, polyethylene oxide and alginate polymers were subjected to dissolution studies in simulated gastric fluid pH 1.2 without pepsin.

[5] = dosage form with pectin, alginate and eudragit polymers crosslinked with metallic salts

Structure (SMILES): O=C(O)Cc1ccccc1Nc1c(Cl)cccc1Cl [Diclofenac]
- water solubility ([1]; at pH 6.8): 0.187%

Structure (SMILES): COc1cccc(C2(O)CCCCC2CN(C)C)c1 (stereo not drawn) [tramadol hydrochloride]
- release kinetics [2, 5]: first-order

Structure (SMILES): COc1cccc(C2(O)CCCCC2CN(C)C)c1 (stereo not drawn) [Tramadol]
- elimination half-life (t1/2) [3]: 6 h

Structure (SMILES): O=C(O)Cc1ccccc1Nc1c(Cl)cccc1Cl [diclofenac potassium]
- release kinetics ([2]; cellulose and polyethylene oxide-based formulation compressed as layered dosage form): zero-order
- release kinetics ([2]; cellulose and polyethylene oxide-based formulation compressed as monolithic matrix): first-order
- release kinetics [2, 5]: zero-order
- release in simulated gastric fluid [4]: not released

Structure (SMILES): CC(=O)Nc1ccc(O)cc1 [Paracetamol]
- release kinetics [2, 5]: first-order
- water solubility ([1]; at 20° C.): 1.4%
